This passage reports IC50 results from patent US8410128B2, “Triazolopyridine compounds useful as kinase inhibitors” (Bristol-Myers Squibb Company, priority 2008, dated 2013).

In the experiment the target is T1, p38 (Homo sapiens, UniProt Q16539).
T1 construct: GST (N); made in house; host or cells: E. coli
In words: p38 Assay (33P-ATP/MBP filter kinase assay). The following applies: bacterially expressed, activated p38 10 nM; ATP 1 μM; MBP substrate; 25° C., 45 min. Type of experiment: biochemical. On the procedure:
Generation of p38 Kinases
For this assay, cDNAs of human p38α, β, and γ isozymes were cloned by PCR. These cDNAs were subcloned in the pGEX expression vector (Pharmacia). GST-p38 fusion protein was expressed in E. Coli and purified from bacterial pellets by affinity chromatography using glutathione agarose. p38 fusion protein was activated by incubating with constitutively active MKK6. Active p38 was separated from MKK6 by affinity chromatography. Constitutively active MKK6 was generated according to Raingeaud et al. (Mol. Cell. Biol., 1247-1255 (1996)).
The assays were performed in V-bottomed 96-well plates. The final assay volume was 60 μl prepared from three 20 μl additions of enzyme, substrates (MBP and ATP) and test compounds in assay buffer (50 mM Tris pH 7.5, 10 mM MgCl2, 50 mM NaCl and 1 mM DTT). Bacterially expressed, activated p38 was pre-incubated with test compounds for 10 min. prior to initiation of reaction with substrates. The reaction was incubated at 25° C. for 45 min. and terminated by adding 5 μl of 0.5 M EDTA to each sample. […] The filtermat was then dried in a microwave oven for 1 min., treated with MELTILEX® A scintillation wax (Wallac), and counted on a MICROBETA® scintillation counter Model 1450 (Wallac). Inhibition data were analyzed by nonlinear least-squares regression using PRIZM® (GraphPadSoftware). […]

T1 sequence (Q16539 whole entry): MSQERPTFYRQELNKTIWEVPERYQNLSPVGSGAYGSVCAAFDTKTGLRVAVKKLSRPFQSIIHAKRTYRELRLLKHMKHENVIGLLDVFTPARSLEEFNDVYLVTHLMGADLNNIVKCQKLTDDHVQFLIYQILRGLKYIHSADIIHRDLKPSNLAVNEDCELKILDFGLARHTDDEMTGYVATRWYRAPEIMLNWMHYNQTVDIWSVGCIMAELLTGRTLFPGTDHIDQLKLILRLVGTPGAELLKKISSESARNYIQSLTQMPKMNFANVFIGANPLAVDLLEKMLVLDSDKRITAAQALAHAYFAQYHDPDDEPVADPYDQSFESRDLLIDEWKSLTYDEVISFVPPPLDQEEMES

The term IC50 denotes the concentration that gives 50% inhibition. A low value points to higher potency. Regarding `CC(C)Nc1ncc(-c2ccc3nncn3c2)s1` [Example 12], the IC50 worked out at 581 nM.
